Laboratory results published in US10640497B2, “Microbiocidal oxadiazole derivatives” (SYNGENTA PARTICIPATIONS AG, priority 2015, dated 2020).

Assays:
[1] = test system: Puccinia recondita f. sp. tritici; assay: Fungicidal activity against Puccinia recondita f. sp. tritici, wheat, leaf disc curative (brown rust); assay type: in vivo; details: foliar, 144 h, wheat leaf segments, curative (applied 1 day after inoculation), 6-8 days after application, compared to untreated control
Description: (§1) Leaf disks or leaf segments of various plant species are cut from plants grown in a greenhouse. The cut leaf disks or segments are placed in multiwell plates (24-well format) onto water agar. The leaf disks are sprayed with a test solution before (preventative) or after (curative) inoculation. Compounds to be tested are prepared as DMSO solutions (max. 10 mg/ml) which are diluted to the appropriate concentration with 0.025% Tween20 just before spraying. The inoculated leaf disks or segments are incubated under defined conditions (temperature, relative humidity, light, etc.) according to the respective test system. A single evaluation of disease level is carried out 3 to 14 days after inoculation, depending on the pathosystem. Percent disease control relative to the untreated check leaf disks or segments is then calculated. Wheat leaf segments cv. Kanzler are placed on agar in multiwell plates (24-well format). The leaf segments are inoculated with a spore suspension of the fungus. Plates are stored in darkness at 19° C. and 75% rh. The formulated test compound diluted in water is applied 1 day after inoculation. The leaf segments are incubated at 19° C. and 75% rh under a light regime of 12 h light/12 h darkness in a climate cabinet and the activity of a compound is assessed as percent disease control compared to untreated when an appropriate level of disease damage appears in untreated check leaf segments (6-8 days after application).

[2] = test system: Puccinia recondita f. sp. tritici; assay: Fungicidal activity against Puccinia recondita f. sp. tritici, wheat, leaf disc preventative (brown rust); assay type: in vivo; details: foliar, wheat leaf segments, preventative (inoculated 1 day after application), 7-9 days after application, compared to untreated control
Description: as §1, with “plates (24-well format) and sprayed with the formulated test compound diluted in water. The leaf” for “plates (24-well format). The leaf”, “of the fungus 1 day” for “of the fungus. Plates are stored in darkness at 19° C. and 75% rh. The formulated test compound diluted in water is applied 1 day”, “day after application. The inoculated” for “day after inoculation. The leaf”, “application. The inoculated leaf segments” for “inoculation. The leaf segments”, “leaf segments (7-9 days after” for “leaf segments (6-8 days after”

[3] = test system: Glomerella lagenarium (Colletotrichum lagenarium); assay: Fungicidal activity against Glomerella lagenarium (Colletotrichum lagenarium), liquid culture, cucumber, preventative (anthracnose); assay type: cell-based; details: Colletotrichum orbiculare, liquid culture (PDB), growth inhibition measured photometrically 3-4 days after application, compared to untreated control
Description: Mycelia fragments or conidia suspensions of a fungus, prepared either freshly from liquid cultures of the fungus or from cryogenic storage, are directly mixed into nutrient broth. DMSO solutions of the test compound (max. 10 mg/ml) is diluted with 0.025% Tween20 by a factor of 50 and 10 μl of this solution is pipetted into a microtiter plate (96-well format). The nutrient broth containing the fungal spores/mycelia fragments is then added to give an end concentration of the tested compound. The test plates are incubated in the dark at 24° C. and 96% relative humidity. The inhibition of fungal growth is determined photometrically after 2 to 7 days, depending on the pathosystem, and percent antifungal activity relative to the untreated check is calculated. Conidia of the fungus from cryogenic storage are directly mixed into nutrient broth (PDB potato dextrose broth). After placing a (DMSO) solution of test compound into a microtiter plate (96-well format), the nutrient broth containing the fungal spores is added. The test plates are incubated at 24° C. and the inhibition of growth is measured photometrically 3-4 days after application.

Phakopsora pachyrhizi = assay: Fungicidal activity against Phakopsora pachyrhizi, soybean, leaf disc preventative (Asian soybean rust); assay type: in vivo; details: foliar, 288 h, 12-14 days after application, compared to untreated control
Description: Leaf disks or leaf segments of various plant species are cut from plants grown in a greenhouse. The cut leaf disks or segments are placed in multiwell plates (24-well format) onto water agar. The leaf disks are sprayed with a test solution before (preventative) or after (curative) inoculation. Compounds to be tested are prepared as DMSO solutions (max. 10 mg/ml) which are diluted to the appropriate concentration with 0.025% Tween20 just before spraying. The inoculated leaf disks or segments are incubated under defined conditions (temperature, relative humidity, light, etc.) according to the respective test system. A single evaluation of disease level is carried out 3 to 14 days after inoculation, depending on the pathosystem. Percent disease control relative to the untreated check leaf disks or segments is then calculated. Soybean leaf disks are placed on water agar in multiwell plates (24-well format) and sprayed with the formulated test compound diluted in water. One day after application leaf discs are inoculated by spraying a spore suspension on the lower leaf surface. After an incubation period in a climate cabinet of 24-36 hours in darkness at 20° C. and 75% rh leaf disc are kept at 20° C. with 12 h light/day and 75% rh. The activity of a compound is assessed as percent disease control compared to untreated when an appropriate level of disease damage appears in untreated check leaf disks (12-14 days after application).

CC1CCCN(Cc2ccc(-c3noc(C(F)(F)F)n3)cc2)C1=O (centres unmarked) [Compound A-10, 3-methyl-1-[[4-[5-(trifluoromethyl)-1,2,4-oxadiazol-3-yl]phenyl]methyl]piperidin-2-one]
≥ 80%: pest or weed control at 200 ppm [1] | pest or weed control at 200 ppm [2] | inhibition of growth at 20 ppm [3] | pest or weed control at 200 ppm (Phakopsora pachyrhizi)

CC1(C)CC(=O)N(Cc2ccc(-c3noc(C(F)(F)F)n3)cc2)C(=O)C1 [Compound A-11, 4,4-dimethyl-1-[[4-[5-(trifluoromethyl)-1,2,4-oxadiazol-3-yl]phenyl]methyl]piperidine-2,6-dione]
≥ 80%: pest or weed control at 200 ppm [1] | pest or weed control at 200 ppm [2] | inhibition of growth at 20 ppm [3] | pest or weed control at 200 ppm (Phakopsora pachyrhizi)

O=C1CCCCN1Cc1ccc(-c2noc(C(F)(F)F)n2)cn1 [Compound A-12, 1-[[5-[5-(trifluoromethyl)-1,2,4-oxadiazol-3-yl]-2-pyridyl]methyl]piperidin-2-one]
≥ 80%: pest or weed control at 200 ppm [1] | pest or weed control at 200 ppm [2] | inhibition of growth at 20 ppm [3] | pest or weed control at 200 ppm (Phakopsora pachyrhizi)

CC1CCC(=O)N1Cc1ccc(-c2noc(C(F)(F)F)n2)cc1 (centres unmarked) [Compound A-13, 5-methyl-1-[[4-[5-(trifluoromethyl)-1,2,4-oxadiazol-3-yl]phenyl]methyl]pyrrolidin-2-one]
≥ 80%: pest or weed control at 200 ppm [1] | pest or weed control at 200 ppm [2] | inhibition of growth at 20 ppm [3] | pest or weed control at 200 ppm (Phakopsora pachyrhizi)

CC1CCCC(=O)N1Cc1ccc(-c2noc(C(F)(F)F)n2)cc1 (centres unmarked) [Compound A-14, 6-methyl-1-[[4-[5-(trifluoromethyl)-1,2,4-oxadiazol-3-yl]phenyl]methyl]piperidin-2-one]
≥ 80%: pest or weed control at 200 ppm [1] | pest or weed control at 200 ppm [2] | inhibition of growth at 20 ppm [3] | pest or weed control at 200 ppm (Phakopsora pachyrhizi)

O=C1C2CCC(CC2)N1Cc1ccc(-c2noc(C(F)(F)F)n2)cc1 [Compound A-15, 3-[[4-[5-(trifluoromethyl)-1,2,4-oxadiazol-3-yl]phenyl]methyl]-3-azabicyclo[2.2.2]octan-2-one]
≥ 80%: pest or weed control at 200 ppm [1] | pest or weed control at 200 ppm [2] | inhibition of growth at 20 ppm [3] | pest or weed control at 200 ppm (Phakopsora pachyrhizi)

CC1(C)CCCN(Cc2ccc(-c3noc(C(F)(F)F)n3)cc2)C1=O [Compound A-16, 3,3-dimethyl-1-[[4-[5-(trifluoromethyl)-1,2,4-oxadiazol-3-yl]phenyl]methyl]piperidin-2-one]
≥ 80%: pest or weed control at 200 ppm [1] | pest or weed control at 200 ppm [2] | inhibition of growth at 20 ppm [3] | pest or weed control at 200 ppm (Phakopsora pachyrhizi)

CC1CCN(Cc2ccc(-c3noc(C(F)(F)F)n3)cc2)C(=O)C1 (centres unmarked) [Compound A-17, 4-methyl-1-[[4-[5-(trifluoromethyl)-1,2,4-oxadiazol-3-yl]phenyl]methyl]piperidin-2-one]
≥ 80%: pest or weed control at 200 ppm [1] | pest or weed control at 200 ppm [2] | inhibition of growth at 20 ppm [3] | pest or weed control at 200 ppm (Phakopsora pachyrhizi)

CC1CCC(=O)N(Cc2ccc(-c3noc(C(F)(F)F)n3)cc2)C1 (centres unmarked) [Compound A-18, 5-methyl-1-[[4-[5-(trifluoromethyl)-1,2,4-oxadiazol-3-yl]phenyl]methyl]piperidin-2-one]
≥ 80%: pest or weed control at 200 ppm [1] | pest or weed control at 200 ppm [2] | inhibition of growth at 20 ppm [3] | pest or weed control at 200 ppm (Phakopsora pachyrhizi)

COC1CCCN(Cc2ccc(-c3noc(C(F)(F)F)n3)cc2)C1=O (centres unmarked) [Compound A-19, 3-methoxy-1-[[4-[5-(trifluoromethyl)-1,2,4-oxadiazol-3-yl]phenyl]methyl]piperidin-2-one]
≥ 80%: pest or weed control at 200 ppm [1] | pest or weed control at 200 ppm [2] | inhibition of growth at 20 ppm [3] | pest or weed control at 200 ppm (Phakopsora pachyrhizi)

O=C1CC(C(F)(F)F)N1Cc1ccc(-c2noc(C(F)(F)F)n2)cc1 (centres unmarked) [Compound A-20, 4-(trifluoromethyl)-1-[[4-[5-(trifluoromethyl)-1,2,4-oxadiazol-3-yl]phenyl]methyl]azetidin-2-one]
≥ 80%: pest or weed control at 200 ppm [1] | pest or weed control at 200 ppm [2] | inhibition of growth at 20 ppm [3] | pest or weed control at 200 ppm (Phakopsora pachyrhizi)
